Data from PubChem BioAssay (NCI).
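Growth conditions: 96-well plates. Treatment: test compound, 48 hours, 5 concentrations. Analysis: linear interpolation between bracketing concentrations; unreached endpoints set to highest concentration. GI50: concentration for 50% inhibition of growth. TGI marks complete inhibition of growth.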

How the values were obtained:
Assay in all cases: growth of human tumour cells (NCI), 48 h
IGROV1 ovarian = test system: IGROV1 ovarian
CAKI-1 renal = test system: CAKI-1 renal
SNB-75 CNS = test system: SNB-75 CNS
SNB-19 CNS = test system: SNB-19 CNS
MDA-MB-231 breast = test system: MDA-MB-231 breast
NCI-H23 lung = test system: NCI-H23 lung
K-562 leukemia = test system: K-562 leukemia
ACHN renal = test system: ACHN renal
RXF 393 renal = test system: RXF 393 renal
M14 melanoma = test system: M14 melanoma
EKVX NSCLC = test system: EKVX NSCLC
DU-145 prostate = test system: DU-145 prostate
COLO 205 colon = test system: COLO 205 colon
KM12 colon = test system: KM12 colon
OVCAR-5 ovarian = test system: OVCAR-5 ovarian
NCI-H522 lung = test system: NCI-H522 lung
SW-620 colon = test system: SW-620 colon
HL-60(TB) leukemia = test system: HL-60(TB) leukemia
SF-539 CNS = test system: SF-539 CNS
SK-MEL-2 melanoma = test system: SK-MEL-2 melanoma
NCI-H460 lung = test system: NCI-H460 lung
HCT-15 colon = test system: HCT-15 colon
HT29 colon = test system: HT29 colon
T-47D breast = test system: T-47D breast
SF-268 CNS = test system: SF-268 CNS
HOP-62 NSCLC = test system: HOP-62 NSCLC
UACC-257 melanoma = test system: UACC-257 melanoma
UO-31 renal = test system: UO-31 renal
SK-OV-3 ovarian = test system: SK-OV-3 ovarian
SR leukemia = test system: SR leukemia
MDA-MB-435 = test system: MDA-MB-435
RPMI-8226 leukemia = test system: RPMI-8226 leukemia
NCI-H226 lung = test system: NCI-H226 lung
LOX IMVI melanoma = test system: LOX IMVI melanoma
SK-MEL-5 melanoma = test system: SK-MEL-5 melanoma
SK-MEL-28 melanoma = test system: SK-MEL-28 melanoma
U251 CNS = test system: U251 CNS
HS 578T breast = test system: HS 578T breast
CCRF-CEM leukemia = test system: CCRF-CEM leukemia
OVCAR-8 ovarian = test system: OVCAR-8 ovarian
BT-549 breast = test system: BT-549 breast
MALME-3M melanoma = test system: MALME-3M melanoma
SF-295 CNS = test system: SF-295 CNS
HCT-116 colon = test system: HCT-116 colon
HCC-2998 colon = test system: HCC-2998 colon
OVCAR-4 ovarian = test system: OVCAR-4 ovarian
UACC-62 melanoma = test system: UACC-62 melanoma
OVCAR-3 ovarian = test system: OVCAR-3 ovarian
SN12C renal = test system: SN12C renal
PC-3 prostate = test system: PC-3 prostate
TK-10 renal = test system: TK-10 renal
HOP-92 NSCLC = test system: HOP-92 NSCLC
NCI/ADR-RES ovarian = test system: NCI/ADR-RES ovarian
786-0 renal = test system: 786-0 renal
MCF7 breast = test system: MCF7 breast
A549 NSCLC = test system: A549 NSCLC

C#Cc1cccc(Nc2ncnc3ccc(-c4cnc(N)nc4)cc23)c1
GI50 (IGROV1 ovarian): 183 nM
TGI (IGROV1 ovarian): 2260 nM
GI50 (CAKI-1 renal): 1090 nM
TGI (CAKI-1 renal): 4.93 µM
GI50 (SNB-75 CNS): 643 nM
TGI (SNB-75 CNS): 3.96 µM
GI50 (SNB-19 CNS): 3.15 µM
TGI (SNB-19 CNS): 21.5 µM
GI50 (MDA-MB-231 breast): 2050 nM
TGI (MDA-MB-231 breast): 11 µM
GI50 (NCI-H23 lung): 3.67 µM
TGI (NCI-H23 lung): > 100 µM
GI50 (K-562 leukemia): 3.42 µM
TGI (K-562 leukemia): > 100 µM
GI50 (ACHN renal): 542 nM
TGI (ACHN renal): 10.3 µM
GI50 (RXF 393 renal): 693 nM
TGI (RXF 393 renal): 3.44 µM
GI50 (M14 melanoma): 3.73 µM
TGI (M14 melanoma): 15.7 µM
GI50 (EKVX NSCLC): 242 nM
TGI (EKVX NSCLC): 2930 nM
GI50 (DU-145 prostate): 744 nM
TGI (DU-145 prostate): 14.6 µM
GI50 (COLO 205 colon): 2990 nM
TGI (COLO 205 colon): 13.8 µM
GI50 (KM12 colon): 4.57 µM
TGI (KM12 colon): 20.8 µM
GI50 (OVCAR-5 ovarian): 1330 nM
TGI (OVCAR-5 ovarian): 14.6 µM
GI50 (NCI-H522 lung): 2110 nM
TGI (NCI-H522 lung): 11.8 µM
GI50 (SW-620 colon): 4.23 µM
TGI (SW-620 colon): 17.7 µM
GI50 (HL-60(TB) leukemia): 2590 nM
TGI (HL-60(TB) leukemia): 11 µM
GI50 (SF-539 CNS): 2810 nM
TGI (SF-539 CNS): 11.9 µM
GI50 (SK-MEL-2 melanoma): 2110 nM
TGI (SK-MEL-2 melanoma): 5.72 µM
GI50 (NCI-H460 lung): 2950 nM
TGI (NCI-H460 lung): 14 µM
GI50 (HCT-15 colon): 2550 nM
TGI (HCT-15 colon): 13.2 µM
GI50 (HT29 colon): 2360 nM
TGI (HT29 colon): 14.6 µM
GI50 (T-47D breast): 664 nM
TGI (T-47D breast): 4.62 µM
GI50 (SF-268 CNS): 1790 nM
TGI (SF-268 CNS): 20.6 µM
GI50 (HOP-62 NSCLC): 1980 nM
TGI (HOP-62 NSCLC): 12.4 µM
GI50 (UACC-257 melanoma): 6.57 µM
TGI (UACC-257 melanoma): 46 µM
GI50 (UO-31 renal): 515 nM
TGI (UO-31 renal): 7.75 µM
GI50 (SK-OV-3 ovarian): 1530 nM
TGI (SK-OV-3 ovarian): 4.74 µM
GI50 (SR leukemia): 2580 nM
TGI (SR leukemia): > 100 µM
GI50 (MDA-MB-435): 3.58 µM
TGI (MDA-MB-435): 15.6 µM
GI50 (RPMI-8226 leukemia): 1430 nM
TGI (RPMI-8226 leukemia): 5.41 µM
GI50 (NCI-H226 lung): 1980 nM
TGI (NCI-H226 lung): 12.8 µM
GI50 (LOX IMVI melanoma): 2780 nM
TGI (LOX IMVI melanoma): 11.3 µM
GI50 (SK-MEL-5 melanoma): 3.34 µM
TGI (SK-MEL-5 melanoma): 12.5 µM
GI50 (SK-MEL-28 melanoma): 3.2 µM
TGI (SK-MEL-28 melanoma): 16 µM
GI50 (U251 CNS): 3.18 µM
TGI (U251 CNS): 16.9 µM
GI50 (HS 578T breast): 1230 nM
TGI (HS 578T breast): 4.06 µM
GI50 (CCRF-CEM leukemia): 2600 nM
TGI (CCRF-CEM leukemia): > 100 µM
GI50 (OVCAR-8 ovarian): 3.69 µM
TGI (OVCAR-8 ovarian): 33.1 µM
GI50 (BT-549 breast): 2070 nM
TGI (BT-549 breast): 9.37 µM
GI50 (MALME-3M melanoma): 1730 nM
TGI (MALME-3M melanoma): 12.7 µM
GI50 (SF-295 CNS): 2560 nM
TGI (SF-295 CNS): 12.2 µM
GI50 (HCT-116 colon): 4.75 µM
TGI (HCT-116 colon): 17.3 µM
GI50 (HCC-2998 colon): 5.14 µM
TGI (HCC-2998 colon): 23.4 µM
GI50 (OVCAR-4 ovarian): 2590 nM
TGI (OVCAR-4 ovarian): 14.8 µM
GI50 (UACC-62 melanoma): 1830 nM
TGI (UACC-62 melanoma): 11.4 µM
GI50 (OVCAR-3 ovarian): 1930 nM
TGI (OVCAR-3 ovarian): 10.5 µM
GI50 (SN12C renal): 1810 nM
TGI (SN12C renal): 12.7 µM
GI50 (PC-3 prostate): 1620 nM
TGI (PC-3 prostate): 11.3 µM
GI50 (TK-10 renal): 286 nM
TGI (TK-10 renal): 3.2 µM
GI50 (HOP-92 NSCLC): 211 nM
TGI (HOP-92 NSCLC): 3.15 µM
GI50 (NCI/ADR-RES ovarian): 4.09 µM
TGI (NCI/ADR-RES ovarian): 36.4 µM
GI50 (786-0 renal): 2670 nM
TGI (786-0 renal): 14.8 µM
GI50 (MCF7 breast): 1800 nM
TGI (MCF7 breast): 12.2 µM
GI50 (A549 NSCLC): 2020 nM
TGI (A549 NSCLC): 14.4 µM
